SMILES strings stand for the structures.

The subject of the assay is Staphylococcus aureus DSM 346. The experiment in a line: Antimicrobial serial dilution assay (MIC). The settings on record: serial dilution 67 to 0.5 µg/mL, overnight. In kind it is cell-based. As for the experimental part: Antimicrobial activity was determined by our established protocol, according to Becker et al.. In general, all of the pure compounds were dissolved in MeOH with a concentration of 1 mg/mL. Assessment of the antimicrobial activity was determined using the serial dilution assay method to calculate the minimum inhibitory concentration (MIC). In this method, the compounds were diluted in a range between 67 and 0.5 µg/mL in 96 well-plate and incubated with the test organism overnight. The next day, growth of the test organisms was visually observed, and MIC was determined in the lowest concentration where a clear zone (no growth of test organism) was observed. In our attempt for novel anti-infective compounds, an established standard protocol using various organisms representing a broad spectrum of pathogens of clinical interest, as well as sensitive indicator strains, was used (bacteria: Bacillus subtilis DSM 10, Staphylococcus aureus DSM 346, Acinetobacter baumanii DSM 30008, Chromobacterium violaceum DSM 30191, Escherichia coli DSM 1116 and Pseudomonas aeruginosa PA14; mycobacteria: Mycobacterium smegmatis ATCC 700084 and fungi: Candida albicans DSM 1665, Schizosaccharomyces pombe DSM 70572, Mucor hiemalis DSM 2656, Wickerhamomyces anomala DSM 6766 and Rhodotorula glutinis DSM 10134). Methanol as a solvent to dissolve the pure compounds was used as the negative control. Oxytetracycline, ciprofloxacin, gentamycin, and kanamycin were used as positive controls against bacteria, whereas nystatin was used against fungi. A detailed experimental procedure can be found in the SI.
Protocol: Antimicrobial Activity Assay
The assay was conducted as a minimum inhibitory concentration (MIC) assay in 96-well round- bottom microtiter plates using the parameters summarized in Table S1 and as already described in [S1]. Stocks of the test organisms were generated by growing the organisms overnight in 50 mL shaking flasks filled with 25 mL of the growth medium at 140r p m ( media and temperatures see Table S1). If the organisms were well grown the next day, which was checked by the occurrence of an optical density (OD) […] of the suspension (OD600 nm for bacteria, OD548 nm for fungi and M. smegmatis), aliquots of these were stored in 1.5 mL reaction tubes in a freezer at −80 °C for up to 12 months. Upon use, aliquots were unthawed and the OD of the suspension measured and adjusted by diluting with the respective growth medium. OD600 nm was adjusted to 0.01 and OD548 nm to 0.1. Subsequently, 150 μ L of the adj usted suspensions were added to all wells of a 96-well microtiter plate (one test organism per plate). In row A, additional 130 μ L of suspensions plus 20 μ L of the test compounds (1 mg/mL) and the controls (one compound/column) were added. MeOH was used as negative controls, while different positive controls (references) were used for the test organisms (see Table S1). Then, starting from row A, 150 μ L of t he suspension were transferred to the next row, the contents thoroughly mixed, and 150 μ L transferred to the following row. The remaining 150 μ L after row H were discarded. […]
of the test compounds, ranging from 66.7 μg/mL in row A to 0.52 μ g/mL in row H. The microtiter plates were then incubated overnight on a microplate shaker at 800 rpm at 30 or 37 °C (see Table S1) and were visually evaluated the next day. The MIC is defined as the lowest concentration where no growth of the test organism (clear zone) was observed. […]
For `CC(C=CCC(C)CCC=C(C)C(=O)C1=C(O)C(C)N(C)C1=O)=CC(C)C(O)C(=O)O` (stereo not shown) [compound 4, Colpomenoic acid A], the MIC result is on record as “n.i”.
For the molecule `CC1=CC2CC(C)CCC2C2(C)C(=O)OC(C(=O)O)C(C)C12` (stereo not shown) [compound 3, Colposetin C], the MIC entry was “n.i”.
As for `CC(C=CCC(C)C=CC=C(C)C(=O)C1=C(O)C(C)N(C)C1=O)=CC(C)C(O)C(=O)O` (stereo not shown) [compound 5, Colpomenoic acid B], the MIC result is listed as “n.i”.
Turning to `CC(=O)OC(C(=O)O)C(C)C1C(C)=CC2CC(C)CCC2C1(C)C(O)=C1C(=O)C(C)N(C)C1=O` (stereo not shown) [compound 1, Colposetin A], the MIC result is listed as “n.i”.

The values are drawn from PMC8224775, “Five Tetramic Acid Derivatives Isolated from the Iranian Fungus Colpoma quercinum CCTU A372” (Biomolecules, 2021).
